PubChem BioAssay (NCI)
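Protocol summary: plate cells (96-well), add compound at 5 concentrations, incubate 48 h, interpolate endpoints linearly. Definition used: TGI = concentration required for complete inhibition of growth.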

How the values were obtained:
Assay in all cases: NCI-60 cell line screen, 48 h
[1] = test system: UACC-257 melanoma
[2] = test system: KM20L2 colon
[3] = test system: ACHN renal
[4] = test system: DMS 273 small cell lung
[5] = test system: SN12C renal
[6] = test system: SK-MEL-5 melanoma
[7] = test system: IGROV1 ovarian
[8] = test system: UACC-62 melanoma
[9] = test system: KM12 colon
[10] = test system: OVCAR-8 ovarian
[11] = test system: SK-MEL-28 melanoma
[12] = test system: 786-0 renal
[13] = test system: SW-620 colon
[14] = test system: OVCAR-5 ovarian
[15] = test system: CAKI-1 renal
[16] = test system: SF-268 CNS
[17] = test system: OVCAR-4 ovarian
[18] = test system: EKVX NSCLC
[19] = test system: K-562 leukemia
[20] = test system: A498 renal
[21] = test system: DMS 114 small cell lung
[22] = test system: HL-60(TB) leukemia
[23] = test system: OVCAR-3 ovarian
[24] = test system: NCI-H226 lung
[25] = test system: UO-31 renal
[26] = test system: SF-295 CNS
[27] = test system: NCI-H522 lung
[28] = test system: SR leukemia
[29] = test system: LOX IMVI melanoma
[30] = test system: RXF 393 renal
[31] = test system: HOP-62 NSCLC
[32] = test system: SK-OV-3 ovarian
[33] = test system: HCT-15 colon
[34] = test system: M14 melanoma
[35] = test system: NCI-H23 lung
[36] = test system: HCC-2998 colon
[37] = test system: A549 NSCLC
[38] = test system: SNB-19 CNS
[39] = test system: SNB-75 CNS
[40] = test system: TK-10 renal
[41] = test system: SF-539 CNS
[42] = test system: SK-MEL-2 melanoma
[43] = test system: HCT-116 colon
[44] = test system: MALME-3M melanoma
[45] = test system: U251 CNS
[46] = test system: MDA-MB-435
[47] = test system: PC-3 prostate
[48] = test system: MCF7 breast
[49] = test system: HT29 colon
[50] = test system: CCRF-CEM leukemia
[51] = test system: HOP-18 NSCLC
[52] = test system: XF 498 CNS
[53] = test system: MOLT-4 leukemia
[54] = test system: BT-549 breast
[55] = test system: MDA-MB-231 breast
[56] = test system: HS 578T breast
[57] = test system: NCI-H460 lung
[58] = test system: MDA-N
[59] = test system: HOP-92 NSCLC
[60] = test system: T-47D breast
[61] = test system: COLO 205 colon
[62] = test system: DU-145 prostate
[63] = test system: NCI/ADR-RES ovarian
[64] = test system: M19-MEL melanoma
[65] = test system: SNB-78 CNS
[66] = test system: RPMI-8226 leukemia
[67] = test system: DLD-1 colon

**Q.** For `CN(C)C(=S)/N=c1\ss/c(=N\C(=S)N(C)C)n1-c1ccc2c(c1)OCO2`, which TGI [1] is on record?
**A.** Its TGI is over 100 µM.

**Q.** What about the TGI [2] of the same compound?
**A.** The TGI was over 100 µM.

**Q.** What about the TGI [3] of the same compound?
**A.** Its TGI is over 100 µM.

**Q.** What about the TGI [4] of the same compound?
**A.** The TGI was over 100 µM.

**Q.** And the TGI [5]?
**A.** The TGI was over 100 µM.

**Q.** And the TGI [6]?
**A.** Its TGI is over 100 µM.

**Q.** And the TGI [7]?
**A.** The TGI was over 100 µM.

**Q.** What about the TGI [8] of the same compound?
**A.** The TGI was over 100 µM.

**Q.** And the TGI [9]?
**A.** The TGI was over 100 µM.

**Q.** And the TGI [10]?
**A.** Its TGI is over 100 µM.

**Q.** And the TGI [11]?
**A.** Its TGI is over 100 µM.

**Q.** What about the TGI [12] of the same compound?
**A.** Its TGI is over 100 µM.

**Q.** And the TGI [13]?
**A.** Its TGI is over 100 µM.

**Q.** And the TGI [14]?
**A.** Its TGI is over 100 µM.

**Q.** What about the TGI [15] of the same compound?
**A.** Its TGI is over 100 µM.

**Q.** What about the TGI [16] of the same compound?
**A.** The TGI was over 100 µM.

**Q.** And the TGI [17]?
**A.** Its TGI is over 100 µM.

**Q.** What about the TGI [18] of the same compound?
**A.** The TGI was over 100 µM.

**Q.** What about the TGI [19] of the same compound?
**A.** Its TGI is over 100 µM.

**Q.** What about the TGI [20] of the same compound?
**A.** The TGI was over 100 µM.

**Q.** What about the TGI [21] of the same compound?
**A.** The TGI was over 100 µM.

**Q.** What about the TGI [22] of the same compound?
**A.** Its TGI is over 100 µM.

**Q.** And the TGI [23]?
**A.** The TGI was over 100 µM.

**Q.** And the TGI [24]?
**A.** The TGI was over 100 µM.

**Q.** What about the TGI [25] of the same compound?
**A.** The TGI was over 100 µM.

**Q.** What about the TGI [26] of the same compound?
**A.** The TGI was over 100 µM.

**Q.** What about the TGI [27] of the same compound?
**A.** Its TGI is over 100 µM.

**Q.** And the TGI [28]?
**A.** Its TGI is over 100 µM.

**Q.** And the TGI [29]?
**A.** Its TGI is over 100 µM.

**Q.** And the TGI [30]?
**A.** The TGI was over 100 µM.

**Q.** And the TGI [31]?
**A.** The TGI was over 100 µM.

**Q.** What about the TGI [32] of the same compound?
**A.** The TGI was over 100 µM.

**Q.** What about the TGI [33] of the same compound?
**A.** The TGI was over 100 µM.

**Q.** What about the TGI [34] of the same compound?
**A.** The TGI was over 100 µM.

**Q.** What about the TGI [35] of the same compound?
**A.** Its TGI is over 100 µM.

**Q.** And the TGI [36]?
**A.** Its TGI is over 100 µM.

**Q.** What about the TGI [37] of the same compound?
**A.** Its TGI is over 100 µM.

**Q.** And the TGI [38]?
**A.** The TGI was over 100 µM.

**Q.** What about the TGI [39] of the same compound?
**A.** The TGI was over 100 µM.

**Q.** And the TGI [40]?
**A.** The TGI was over 100 µM.

**Q.** What about the TGI [41] of the same compound?
**A.** Its TGI is over 100 µM.

**Q.** What about the TGI [42] of the same compound?
**A.** The TGI was over 100 µM.

**Q.** What about the TGI [43] of the same compound?
**A.** The TGI was over 100 µM.

**Q.** What about the TGI [44] of the same compound?
**A.** The TGI was over 100 µM.

**Q.** And the TGI [45]?
**A.** Its TGI is over 100 µM.

**Q.** Which results are given for `O=c1[nH]c(=O)n(C2CC(O)C(CS)O2)cc1F` (stereo unspecified)?
**A.** TGI [46]: > 100 µM; TGI [1]: > 100 µM; TGI [2]: > 100 µM; TGI [47]: > 100 µM; TGI [3]: > 92.4 µM; TGI [5]: > 100 µM; TGI [6]: > 100 µM; TGI [7]: > 100 µM; TGI [8]: > 100 µM; TGI [48]: > 43.5 µM; TGI [49]: > 100 µM; TGI [9]: > 100 µM; TGI [10]: > 63.1 µM; TGI [11]: > 100 µM; TGI [50]: > 100 µM; TGI [12]: > 100 µM; TGI [13]: > 100 µM; TGI [14]: > 100 µM; TGI [15]: > 100 µM; TGI [16]: > 100 µM; TGI [17]: > 100 µM; TGI [18]: > 100 µM; TGI [51]: > 100 µM; TGI [19]: > 100 µM; TGI [20]: > 86.2 µM; TGI [21]: > 100 µM; TGI [52]: > 100 µM; TGI [22]: > 100 µM; TGI [23]: > 100 µM; TGI [24]: > 100 µM; TGI [25]: > 100 µM; TGI [26]: > 100 µM; TGI [27]: > 100 µM; TGI [28]: > 100 µM; TGI [53]: > 100 µM; TGI [54]: > 100 µM; TGI [29]: > 100 µM; TGI [30]: > 100 µM; TGI [31]: > 93.8 µM; TGI [32]: > 100 µM; TGI [33]: > 100 µM; TGI [55]: > 100 µM; TGI [34]: > 100 µM; TGI [35]: > 100 µM; TGI [56]: > 100 µM; TGI [36]: > 100 µM; TGI [57]: > 100 µM; TGI [37]: > 100 µM; TGI [58]: > 100 µM; TGI [59]: > 96.7 µM; TGI [38]: > 100 µM; TGI [39]: > 100 µM; TGI [40]: > 100 µM; TGI [60]: > 100 µM; TGI [41]: > 90.2 µM; TGI [61]: > 100 µM; TGI [62]: > 100 µM; TGI [63]: > 11.7 µM; TGI [42]: > 100 µM; TGI [43]: > 100 µM; TGI [64]: > 100 µM; TGI [44]: > 100 µM; TGI [65]: > 100 µM; TGI [45]: > 100 µM; TGI [66]: > 100 µM; TGI [67]: > 100 µM
